Data: patent US10245249B2, “Pharmaceutical compositions comprising nitroxyl donors” (Cardioxyl Pharmaceuticals, Inc., priority 2013, dated 2019)

Legend:
[1] = HNO production determined via N2O quantification (GC headspace analysis); format: physicochemical; conditions: PBS, 37° C.
Text: Nitrous oxide (N2O) is produced via the dimerization and dehydration of HNO, and is the most common marker for nitroxyl production (Fukuto et al., Chem. Res. Toxicol. 18:790-801 (2005)). […] Using either nitrous oxide gas or Angeli's salt (AS) as a standard, the relative amounts of N2O released from compounds of the disclosure was examined via gas chromatography (GC) headspace analysis.
A procedure for determining the relative amounts of N2O released from compounds of the disclosure is as follows. GC was performed on an Agilent gas chromatograph equipped with a split injector (10:1 splitting), microelectron capture detector, and a HP-MOLSIV 30 m×0.32 mm×25 μm molecular sieve capillary column. Helium was used as the carrier (4 mL/min) gas and nitrogen was used as the make-up (20 mL/min) gas. The injector oven and the detector oven were kept at 200° C. and 325° C., respectively. All nitrous oxide analyses were performed with the column oven held at a constant temperature of 200° C.
All gas injections were made using an automated headspace analyzer. Vial pressurization was 15 psi. The analyzer's sample oven, sampling valve, and transfer line were kept at 40° C., 45° C., and 50° C., respectively. The oven stabilization, vial pressurization, loop fill, loop equilibration, and sample injection times were 1.00 min., 0.20 min., 0.20 min., 0.05 min., and 1.00 min., respectively.
All determinations used a batch of nominal 20 mL headspace vials with volumes pre-measured for sample uniformity (actual vial volume varied by <2.0% relative standard deviation (n=6)). The average vial volume for the batch was determined from six randomly-selected vials by calculating the weight difference between the capped and sealed empty (i.e., air-filled) vial and the capped and sealed deionized water-filled vial using the known density of deionized water, then averaging. Blanks were prepared by sealing and capping two vials then purging each for 20 seconds with a gentle argon stream. Nitroxyl standards were prepared by sealing and capping four vials then purging each for 1 minute with a gentle stream, from a gas cylinder, of a 3000 ppm […].
CXL-1020 (N-hydroxy-2-methanesulfonylbenzene-1-sulfonamide) “standards” were prepared by, in duplicate, accurately weighing 10±0.5 mg of CXL-1020 and adding it to each 4 mL vial. Using an auto pipette, 1 mL of argon-purged anhydrous DMF (Sigma-Aldrich) was added to each 4 mL vial to form a CXL-1020 stock solution for each sample and the vials were capped and shaken and/or sonicated to insure complete dissolution upon visual observation. Using an auto pipette, 20 mL vials were charged with 5 mL of PBS (purged for at least 30 min. with argon prior to use), purged with argon for at least 20 sec., and sealed with a rubber septum. Using a 50 μL syringe, 50 μL of the CXL-1020 stock solution was injected into each 20 mL vial containing the PBS.
Samples were prepared as follows. In duplicate, 18±1 mg of each sample was accurately weighed into each 4 mL vial. Using an auto pipette, 1 mL of argon-purged anhydrous DMF was added to each 4 mL vial to form a sample stock solution for each sample and the vials were capped and shaken and/or sonicated to insure complete sample dissolution upon visual observation. Using an auto pipette, 20 mL vials were charged with 5 mL of PBS (purged for at least 30 min. with argon prior to use), purged with argon for at least 20 sec., and sealed with a rubber septum. The vials were equilibrated for at least 10 min. at 37° C. in a dry block heater. Thereafter, using a 50 μL syringe, 50 μL of a sample stock solution was injected into each 20 mL vial containing the PBS. The vials were then held at 37° C. in the dry block heater for a time period such that the sum of the time spent in the dry block heater plus the time spent in the automated headspace analyzer oven before sample injection equaled the desired incubation time. […]

[2] = In vitro stability (half-life) in phosphate buffered saline (PBS) pH 7.4; format: physicochemical; conditions: pH 7.4, 5 μM, PBS pH 7.4, 37° C., read-out: T1/2 (minutes) PBS
Description: (§1) Certain compounds from Tables 1 and 2 and CXL-1020 were tested for their stability in phosphate buffered saline (PBS) and plasma. The assay system comprised (i) PBS, or plasma from rat, dog or human (at least 3 donors, male, pooled) at pH 7.4, and (ii) for tests conducted in plasma, an anticoagulant (sodium heparin or sodium citrate). Each test compound (5 μM) was incubated in PBS or plasma at 37° C. on a THERMOMIXER® with shaking. Three samples (n=3) were taken at each of seven sampling time points: 0, 10, 30, 60, 90, 180 and 360 minutes. The samples were immediately combined with 3 volumes (i.e., 3 times the volume of PBS or plasma) of acetonitrile containing 1% formic acid and an internal standard to terminate the reaction. AB SCIEX API 3000 LC-MS/MS analysis of the test compounds was performed without a standard curve. Half-lives (T1/2) of the test compounds were determined from graphs of the percent remaining values using the peak area response ratio. For compounds tested multiple times, the value provided in the Table represents an average of the replicate assays.

[3] = In vitro stability (half-life) in rat plasma; format: in vitro ADME; conditions: rat plasma pH 7.4 with anticoagulant, 37° C.; for half-life at 5 μM: male, rat, plasma, pH 7.4, 5 μM, read-out: T1/2 (minutes) Rat
Description: as §1

half-life at 5 μM [2] [min] | half-life at 5 μM [3] [min] | T1/2 (minutes) Rat ([3]; 5 μM) [min] | SMILES | Relative N2O Yield (90 minutes incubation) [1] [%] | Relative N2O Yield (360 minutes incubation) [1] [%]
149 | – | – | O=S(=O)(NO)c1cccc2ccoc12 [Compound 4, N-Hydroxy-1-benzofuran-7-sulfonamide] | 64 | –
2 | > 360 | – | CC(=O)N1CCc2cc(Br)c(S(=O)(=O)NO)cc21 [Compound 9, 1-Acetyl-5-bromo-N-hydroxy-2,3-dihydro-1H-indole-6-sulfonamide] | 53 | 71
5 | – | – | O=S(=O)(NO)c1cc(CO)ccc1Cl [Compound 10, 2-Chloro-N-hydroxy-5-(hydroxymethyl)benzene-1-sulfonamide] | 91 | –
5 | < 5 | – | CC(=O)N1CCc2cc(Cl)c(S(=O)(=O)NO)cc21 [Compound 11, 1-Acetyl-5-chloro-N-hydroxy-2,3-dihydro-1H-indole-6-sulfonamide] | 55 | 81
20 | – | – | O=S(=O)(NO)c1cc(Cl)c(Cl)s1 [Compound 12, 4,5-Dichloro-N-hydroxythiophene-2-sulfonamide] | 29 | –
42 | – | – | COc1ccc2cc(S(=O)(=O)NO)oc2c1 [Compound 13, N-Hydroxy-6-methoxy-1-benzofuran-2-sulfonamide] | 86 | –
75 | 13 | – | Cc1ccc(S(=O)(=O)NO)c(F)c1 [Compound 14, 2-Fluoro-N-hydroxy-4-methylbenzene-1-sulfonamide] | 48 | 70
63 | – | – | O=S(=O)(NO)c1ccc2nsnc2c1 [Compound 15, N-Hydroxy-2,1,3-benzothiadiazole-5-sulfonamide] | 59 | 71
20 | – | – | CS(=O)(=O)c1csc(S(=O)(=O)NO)c1 [Compound 16, N-Hydroxy-4-methanesulfonylthiophene-2-sulfonamide] | 86 | –
59 | > 360 | – | COc1ccc(Br)cc1S(=O)(=O)NO [Compound 17, 5-Bromo-N-hydroxy-2-methoxybenzene-1-sulfonamide] | 53 | 77
56 | > 360 | – | Cc1cc(S(=O)(=O)NO)c(C)cc1Cl [Compound 18, 4-Chloro-N-hydroxy-2,5-dimethylbenzene-1-sulfonamide] | 56 | 73
44 | – | – | CCN(CC)C(=O)c1ccc(S(=O)(=O)NO)s1 [Compound 19, N,N-Diethyl-5-(hydroxysulfamoyl)thiophene-2-carboxamide] | 77 | –
– | – | 7 | Cc1ccc(F)cc1S(=O)(=O)NO [Compound 20, 5-Fluoro-N-hydroxy-2-methylbenzene-1-sulfonamide] | 90 | –
39 | 36 | – | O=C(c1ccc(S(=O)(=O)NO)s1)N1CCOCC1 [Compound 21, N-Hydroxy-5-(morpholine-4-carbonyl)thiophene-2-sulfonamide] | 73.5 | –
33 | 23 | – | CC(C)NC(=O)c1ccc(S(=O)(=O)NO)s1 [Compound 22, 5-(Hydroxysulfamoyl)-N-(propan-2-yl)thiophene-2-carboxamide] | 85 | –
66 | – | – | CS(=O)(=O)c1ccc(S(=O)(=O)NO)s1 [Compound 23, N-Hydroxy-5-methanesulfonylthiophene-2-sulfonamide] | – | –
37 | 14 | – | O=S(=O)(NO)c1cccc2nsnc12 [Compound 24, N-Hydroxy-2,1,3-benzothiadiazole-4-sulfonamide] | 60 | 69
86 | – | – | COc1ccccc1S(=O)(=O)NO [Compound 25, N-Hydroxy-2-methoxybenzene-1-sulfonamide] | 7 | 28
136 | – | – | O=C(c1cc(S(=O)(=O)NO)cs1)N1CCOCC1 [Compound 28, N-Hydroxy-5-(morpholine-4-carbonyl)thiophene-3-sulfonamide] | 74 | –
385 | – | – | Cc1nn(C)c(Cl)c1S(=O)(=O)NO [Compound 30, 5-Chloro-N-hydroxy-1,3-dimethyl-1H-pyrazole-4-sulfonamide] | 27 | –
745 | – | – | Cn1cc(S(=O)(=O)NO)cn1 [Compound 31, N-Hydroxy-1-methyl-1H-pyrazole-4-sulfonamide] | – | –
61 | 32 | – | O=S(=O)(NO)c1ccccn1 [Compound 32, N-Hydroxypyridine-2-sulfonamide] | 71 | –
58 | 19 | – | O=C(c1csc(S(=O)(=O)NO)c1)N1CCOCC1 [Compound 35, N-Hydroxy-4-(morpholine-4-carbonyl)thiophene-2-sulfonamide] | 100 | –
30 | 29 | – | Cc1cc(F)ccc1S(=O)(=O)NO [Compound 39, 4-Fluoro-N-hydroxy-2-methylbenzene-1-sulfonamide] | 60 | 75
11 | < 5 | – | O=[N+]([O-])c1cc(S(=O)(=O)NO)sc1Cl [Compound 47, 5-Chloro-N-hydroxy-4-nitrothiophene-2-sulfonamide] | 58 | 70
87 | 13 | – | Cc1ccc(C)c(S(=O)(=O)NO)c1 [Compound 49, N-Hydroxy-2,5-dimethylbenzene-1-sulfonamide] | 42 | 68
15 | 7 | – | O=S(=O)(NO)c1cc(S(=O)(=O)c2ccccc2)cs1 [Compound 51, 4-(Benzenesulfonyl)-N-hydroxythiophene-2-sulfonamide] | 96 | –
> 360 | > 360 | – | O=S(=O)(NO)c1ccc(Cl)c(Cl)c1 [Compound 95, 3,4-Dichloro-N-hydroxybenzene-1-sulfonamide] | – | –
